Here are results for 25 compounds from patent US11566007B2, “Ras inhibitors” (Revolution Medicines, Inc., priority 2019, dated 2023).

For experiment [1], the system named is NCI-H358 (K-Ras G12C). Description: CellTiter-Glo cell viability assay, NCI-H358. The settings on record: Homo sapiens, NCI-H358, 120 h, NCI-H358, 5-day treatment; class symbols; read-out: Additional H358 Cell Viability assay data (K-Ras G12C, IC50). In kind it is cell-based, human. In short, it runs like this: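 Viability measured by CellTiter-Glo luminescence on day 5 following direct addition of compound to plated cells. Values expressed as percent of mean DMSO signal; curves fitted with a four-parameter logistic model.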
On the technique in general: ATP-based viability assays read luminescence as a measure of living cells.

Experiment [2] deals with KRAS G12S (Homo sapiens (Human), UniProt P01116+P62937, G12S). Description: Ras-Raf (BRAF RBD) disruption / FRET / MOA assay, KRAS G12S. In kind it is biochemical. Conditions: Ras-Raf disruption/FRET/MOA assay; class symbols; read-out: KRAS G12S FRET data IC50. The procedure, abridged: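 Ternary complex formation (Ras–compound–cyclophilin A) displacing BRAF RBD, monitored by TR-FRET. Three hours at 25° C with compound (top 30 μM final), then 1.5 h with the labelled antibodies. Lower ratio than DMSO indicates disruption; IC50 reported.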
Sequence of KRAS G12S (P01116-2 other isoform, or with tags, fused parts or gaps G12S): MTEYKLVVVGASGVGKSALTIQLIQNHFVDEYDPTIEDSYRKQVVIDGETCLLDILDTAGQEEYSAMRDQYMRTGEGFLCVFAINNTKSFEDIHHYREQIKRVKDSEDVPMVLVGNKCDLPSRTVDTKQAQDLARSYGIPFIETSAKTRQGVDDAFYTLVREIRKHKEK
Sequence of KRAS G12S (P62937 whole entry): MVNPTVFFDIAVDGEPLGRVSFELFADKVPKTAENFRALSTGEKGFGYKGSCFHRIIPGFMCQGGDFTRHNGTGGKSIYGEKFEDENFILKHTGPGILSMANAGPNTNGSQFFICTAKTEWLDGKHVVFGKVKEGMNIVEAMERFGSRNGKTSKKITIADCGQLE

Structures are written as SMILES.

As a reminder, the IC50 is the concentration needed to halve the response being measured. With `C=CC(=O)N1CCOC2(C1)CN(C(=O)N(C)[C@H](C(=O)N[C@H]1Cc3cccc(c3)-c3ccc4c(c3)c(c(-c3cccnc3[C@H](C)OC)n4CC(F)(F)F)CC(C)(C)COC(=O)[C@@H]3CCCN(N3)C1=O)C(C)C)C2` (atropisomer, axis not shown) [Example A538], the results for the IC50 in experiment [1] and in experiment [2] were 10 to 100 nM and 100 to 1000 nM, respectively.

With `C=CC(=O)N1C[C@@H](N(C)C(=O)N(C)[C@H](C(=O)N[C@H]2Cc3nc(cs3)-c3ccc4c(c3)c(c(-c3cccnc3[C@H](C)OC)n4CC)CC(C)(C)COC(=O)[C@@H]3CCCN(N3)C2=O)C(C)C)[C@@H](C)C1` (atropisomer, axis not shown) [Example A583], the IC50 in experiment [1] lay within 10 to 100 nM; in experiment [2], 100 to 1000 nM.

Turning to `C=CC(=O)N1CCOC2(CCN(C(=O)N(C)[C@H](C(=O)N[C@H]3Cc4cccc(c4)-c4ccc5c(c4)c(c(-c4cccnc4[C@H](C)OC)n5CC(F)(F)F)CC(C)(C)COC(=O)[C@@H]4CCCN(N4)C3=O)C(C)C)CC2)C1` (atropisomer, axis not shown) [Example A608], the IC50 in experiment [1] lay in the range of 10 to 100 nM; in experiment [2], 100 to 1000 nM.

Consider `C=CC(=O)N1CCN(C(=O)N(C)[C@H](C(=O)N[C@H]2Cc3nc(cs3)-c3ccc4c(c3)c(c(-c3cccnc3[C@H](C)OC)n4CC)CC(C)(C)COC(=O)[C@@H]3CCCN(N3)C2=O)C(C)C)CC12CC2` (atropisomer, axis not shown) [Example A417], for which the half-maximal inhibitory concentration (IC50) in experiment [1] lay in the range of 10 to 100 nM; in experiment [2], 100 to 1000 nM.

In the case of `CCn1c(-c2cccnc2[C@H](C)OC)c2c3cc(ccc31)-c1csc(n1)C[C@H](NC(=O)[C@H](C(C)C)N(C)C(=O)N(C)C1CN(C(=O)/C=C/CN(C)C)C1)C(=O)N1CCC[C@H](N1)C(=O)OCC(C)(C)C2` (atropisomer, axis not shown) [Example A361], the IC50 in experiment [1] lay within 10 to 100 nM; in experiment [2], 100 to 1000 nM.

Consider `C=CC(=O)N1CC[C@H](C(=O)N(C)[C@H](C(=O)N[C@H]2Cc3cc(O)cc(c3)-c3ccc4c(c3)c(c(-c3cc(N5CC(OC)C5)ccn3)n4CC)CC(C)(C)COC(=O)[C@@H]3CCCN(N3)C2=O)C(C)C)C1` [Example A104], for which the IC50 in experiment [1] is under 10 nM; in experiment [2], 1000 to 10000 nM.

`C=CC(=O)N1CCC2(C1)CN(C(=O)N(C)[C@H](C(=O)N[C@H]1Cc3nc(cs3)-c3ccc4c(c3)c(c(-c3cccnc3[C@H](C)OC)n4CC(F)(F)F)CC(C)(C)COC(=O)[C@@H]3CCCN(N3)C1=O)C(C)C)C2` [Example A603]: the IC50 fell in the range of 10 to 100 nM in experiment [1] and 100 to 1000 nM in experiment [2].

With `CO[C@@H](C)c1ncccc1-c1c2c3cc(ccc3n1CC(F)(F)F)-c1csc(n1)C[C@H](NC(=O)CCOC1CN(C(=O)C#CC(C)(C)N(C)C)C1)C(=O)N1CCC[C@H](N1)C(=O)OCC(C)(C)C2` (atropisomer, axis not shown) [Example A380], the 50% inhibitory concentration (IC50) in experiment [1] was under 10 nM; in experiment [2], 1000 to 10000 nM.

In the case of `C=CC(=O)N1CC[C@H](C(=O)N(C)[C@H](C(=O)N[C@H]2Cc3cc(cc(C(F)F)c3)-c3ccc4c(c3)c(c(-c3cccnc3[C@H](C)OC)n4CC(F)(F)F)CC(C)(C)COC(=O)[C@@H]3CCCN(N3)C2=O)C(C)C)C1` (atropisomer, axis not shown) [Example A372], the IC50 in experiment [1] lay within 10 to 100 nM; in experiment [2], 1000 to 10000 nM.

As for `C=CC(=O)N1CCO[C@@H]2CN(C(=O)N(C)[C@H](C(=O)N[C@H]3Cc4nc(cs4)-c4ccc5c(c4)c(c(-c4cccnc4[C@H](C)OC)n5CC)CC(C)(C)COC(=O)[C@@H]4CCCN(N4)C3=O)C(C)C)C[C@@H]21` (atropisomer, axis not shown) [Example A714], the IC50 in experiment [1] was under 10 nM; in experiment [2], 100 to 1000 nM.

For `CCn1c(-c2cccnc2[C@H](C)OC)c2c3cc(ccc31)N1CCO[C@@H](C[C@H](NC(=O)[C@@H](COC3CCN(C(=O)C#CC(C)(C)N(C)C)CC3)C(C)C)C(=O)N3CCC[C@H](N3)C(=O)OCC(C)(C)C2)C1` (atropisomer, axis not shown) [Example A643, (2R)-2-(((1-(4-(dimethylamino)-4-methylpent-2-ynoyl)piperidin-4-yl)oxy)methyl)-N-((2^2S,6^3S,4S)-1^1-ethyl-1^2-(2-((S)-1-methoxyethyl)pyridin-3-yl)-10,10-dimethyl-5,7-dioxo-6^1,6^2,6^3,6^4,6^5,6^6-hexahydro-1^1H-8-oxa-2(4,2)-morpholina-1(5,3)-indola-6(1,3)-pyridazinacycloundecaphane-4-yl)-3-methylbutanamide], the half-inhibitory concentration (IC50) is under 10 nM in experiment [1] and over 10000 nM in experiment [2].

On to `C=CC(=O)N(C)[C@@H]1C[C@H]1N(C)C(=O)N(C)[C@H](C(=O)N[C@H]1Cc2nc(cs2)-c2ccc3c(c2)c(c(-c2cccnc2[C@H](C)OC)n3CC)CC(C)(C)COC(=O)[C@@H]2CCCN(N2)C1=O)C(C)C` (atropisomer, axis not shown) [Example A739], for which the concentration for half-maximal inhibition (IC50) in experiment [1] lay within 10 to 100 nM; in experiment [2] it was 1000 to 10000 nM.

With `C=CC(=O)N(C)[C@H]1C[C@@H](N(C)C(=O)N(C)[C@H](C(=O)N[C@H]2Cc3nc(cs3)-c3ccc4c(c3)c(c(-c3cccnc3[C@H](C)OC)n4CC)CC(C)(C)COC(=O)[C@@H]3CCCN(N3)C2=O)C(C)C)C1` (atropisomer, axis not shown) [Example A704], the IC50 in experiment [1] is under 10 nM; in experiment [2], 100 to 1000 nM.

As to `C=CC(=O)N1CCC2(CC1)CCN2C(=O)N(C)[C@H](C(=O)N[C@H]1Cc2nc(cs2)-c2ccc3c(c2)c(c(-c2cccnc2[C@H](C)OC)n3CC)CC(C)(C)COC(=O)[C@@H]2CCCN(N2)C1=O)C(C)C` (atropisomer, axis not shown) [Example A678], the IC50 was in the range of 10 to 100 nM in experiment [1] and 100 to 1000 nM in experiment [2].

For the compound `C=CC(=O)N(C)[C@H]1CC1N(C)C(=O)N(C)[C@H](C(=O)N[C@H]1Cc2nc(cs2)-c2ccc3c(c2)c(c(-c2cccnc2[C@H](C)OC)n3CC)CC(C)(C)COC(=O)[C@@H]2CCCN(N2)C1=O)C(C)C` (some centres unmarked) [Example A738], the concentration for half-maximal inhibition (IC50) was under 10 nM in experiment [1] and 1000 to 10000 nM in experiment [2].

As to `C=CC(=O)N(C)[C@H]1C[C@H](N(C)C(=O)N(C)[C@H](C(=O)N[C@H]2Cc3nc(cs3)-c3ccc4c(c3)c(c(-c3cccnc3[C@H](C)OC)n4CC)CC(C)(C)COC(=O)[C@@H]3CCCN(N3)C2=O)C(C)C)C1` (atropisomer, axis not shown) [Example A712], the IC50 in experiment [1] was under 10 nM; in experiment [2], 10 to 100 nM.

In the case of `CC#CC(=O)N1CCC(C(=O)N(C)[C@H](C(=O)N[C@H]2Cc3nc(cs3)-c3ccc4c(c3)c(c(-c3cccnc3[C@H](C)OC)n4CC)CC(C)(C)COC(=O)[C@@H]3CCCN(N3)C2=O)C(C)C)C1` (atropisomer, axis not shown) [Example A168], the values for the IC50 in experiment [1] and in experiment [2] were 10 to 100 nM and 1000 to 10000 nM, respectively.

Take `CCn1c(-c2cccnc2[C@H](C)OC)c2c3cc(ccc31)-c1csc(n1)C[C@H](NC(=O)[C@H](C(C)C)N(C)C(=O)N1CCC3(CC1)CN(C(=O)/C=C/C(F)F)C3)C(=O)N1CCC[C@H](N1)C(=O)OCC(C)(C)C2` (atropisomer, axis not shown) [Example A683]: the 50% inhibitory concentration (IC50) in experiment [1] was 10 to 100 nM; in experiment [2] it was 100 to 1000 nM.

As to `C=CC(=O)N(C)CCN1CCN(C(=O)N(C)[C@H](C(=O)N[C@H]2Cc3nc(cs3)-c3ccc4c(c3)c(c(-c3cccnc3[C@H](C)OC)n4CC)CC(C)(C)COC(=O)[C@@H]3CCCN(N3)C2=O)C(C)C)CC1` (atropisomer, axis not shown) [Example A630], the values for the half-maximal inhibitory concentration (IC50) in experiment [1] and in experiment [2] were 10 to 100 nM and 100 to 1000 nM, respectively.

For `C=CC(=O)N1CC[C@H](N(C)C(=O)N(C)[C@H](C(=O)N[C@H]2Cc3nc(cs3)-c3ccc4c(c3)c(c(-c3cccnc3[C@H](C)OC)n4CC)CC(C)(C)COC(=O)[C@@H]3CCCN(N3)C2=O)C(C)C)C1` (atropisomer, axis not shown) [Example A728], the values for the IC50 in experiment [1] and in experiment [2] were 10 to 100 nM and 100 to 1000 nM, respectively.

Take `CO[C@@H](C)c1ncccc1-c1c2c3cc(ccc3n1CC(F)(F)F)-c1csc(n1)C[C@H](NC(=O)[C@H](C(C)C)N(C)C(=O)N1CCN(C(=O)/C=C/CN(C)C)C3(CC3)C1)C(=O)N1CCC[C@H](N1)C(=O)OCC(C)(C)C2` (atropisomer, axis not shown) [Example A664]: the IC50 in experiment [1] and in experiment [2] was 10 to 100 nM in each case.

For the compound `C=CC(=O)N(C)C1CN(C(=O)N(C)[C@H](C(=O)N[C@H]2Cc3nc(cs3)-c3ccc4c(c3)c(c(-c3cccnc3[C@H](C)OC)n4CC)CC(C)(C)COC(=O)[C@@H]3CCCN(N3)C2=O)C(C)C)C1` (atropisomer, axis not shown) [Example A463], the IC50 was under 10 nM in experiment [1] and 100 to 1000 nM in experiment [2].

On to `CCn1c(-c2cccnc2[C@H](C)OC)c2c3cc(ccc31)-c1cccc(c1)C[C@H](NC(=O)[C@H](C(C)C)N(C)C(=O)N1CCC13CN(C(=O)C#CC(C)(C)N(C)C)C3)C(=O)N1CCC[C@H](N1)C(=O)OCC(C)(C)C2` [Example A672], for which the concentration for half-maximal inhibition (IC50) lay in the range of 10 to 100 nM in experiment [1] and 100 to 1000 nM in experiment [2].

Turning to `C=CC(=O)NC[C@H]1CCN1C(=O)N(C)[C@H](C(=O)N[C@H]1Cc2nc(cs2)-c2ccc3c(c2)c(c(-c2cccnc2[C@H](C)OC)n3CC)CC(C)(C)COC(=O)[C@@H]2CCCN(N2)C1=O)C(C)C` (atropisomer, axis not shown) [Example A356], the results for the half-maximal inhibitory concentration (IC50) in experiment [1] and in experiment [2] were under 10 nM and 1000 to 10000 nM, respectively.

In the case of `C=CC(=O)N1CCO[C@H]2CN(C(=O)N(C)[C@H](C(=O)N[C@H]3Cc4coc(n4)-c4ccc5c(c4)c(c(-c4cccnc4[C@H](C)OC)n5CC(F)(F)F)CC(C)(C)COC(=O)[C@@H]4CCCN(N4)C3=O)C(C)C)C[C@H]21` (atropisomer, axis not shown) [Example A574], the IC50 in experiment [1] is 10 to 100 nM; in experiment [2], 1000 to 10000 nM.
